System: T-iPS-T cells
Assay: Feeder-free culture of T-iPS-T cells, FACS count of PI-negative cells and CD45RA(+)CCR7(+) cells
Format: cell-based, human
Conditions: 6 days; for Number of CD45RA+CCR7+ cells: DMSO 3891 ± 3170; for Cell number: DMSO 16096 ± 10785
Procedure: After washing, the cells were resuspended in the staining solution containing PI. Half the amount was analyzed using a BD LSR Fortessa cytometer (BD Bioscience) equipped with HTS, and all cells were recorded.
The concentration dependence of the bisbenzylisoquinoline alkaloid represented by the formula (X-1) or the formula (X-2) in feeder-free proliferation of T-iPS-T cells was examined. T-iPS-T cells were cultured using alpha-MEM medium supplemented with 15% FBS, 1% PSG, PAA (50 μg/mL), ITS-G, IL-7 (5 ng/mL), IL-12 (50 ng/mL), IL-15 (5 ng/mL), IL-18 (50 ng/mL), IL-21 (20 ng/mL), and z-VAD-fmk (10 μM).
The effect on culturing of T-iPS-T cells was evaluated by comparing a known compound that contributes to the proliferation of memory T cells with berbamine. […] DMSO (0.1%) that is a solvent for the compound was used as a control.
The number of events of PI-negative cells and the number of events of CD45RA(+)CCR7(+) cells in the PI-negative cells, which were analyzed by FlowJo 9, were used as data. Note that in a statistical analysis, a Student's t-test was used (*: p<0.05).
The effect of the combined use of berbamine with a MAPK cascade inhibitor on the proliferation of memory T cells was examined. […] The final concentration of each compound was set to 1 μM. DMSO (0.1%) that is a solvent for the compound was used as a control.
The number of events (#Cells) of CD45RA(+)CCR7(+) cells in the PI-negative cell population analyzed by FlowJo 9 was plotted and graphed. Note that in a statistical analysis, a Student's t-test was used (*: p<0.05, **P<0.01, ***P<0.001, ****P<0.0001).

Row | SMILES | Number of CD45RA+CCR7+ cells (1 nM) | Cell number (1 nM) | Number of CD45RA+CCR7+ cells (3 nM) | Cell number (3 nM) | Number of CD45RA+CCR7+ cells (10 nM) | Cell number (10 nM) | Number of CD45RA+CCR7+ cells (30 nM) | Cell number (30 nM) | Number of CD45RA+CCR7+ cells (100 nM) | Cell number (100 nM) | Number of CD45RA+CCR7+ cells (300 nM) | Cell number (300 nM) | Number of CD45RA+CCR7+ cells (1 μM) | Cell number (1 μM) | Number of CD45RA+CCR7+ cells (3 μM) | Cell number (3 μM) | Number of CD45RA+CCR7+ cells (10 μM) | Cell number (10 μM)
1 | COc1ccc2cc1Oc1ccc(cc1)C[C@H]1c3c(cc4c(c3Oc3cc5c(cc3OC)CCN(C)[C@@H]5C2)OCO4)CCN1C [Cepharanthine, cepharanthine] | 5429 ± 3207 ** | 18312 ± 7127 | 5256 ± 3168 | 19212 ± 8368 | 5632 ± 3014 *** | 20590 ± 9995 | 7764 ± 3495 ** | 29158 ± 12980 * | 9486 ± 4802 * | 41856 ± 9113 ** | 13060 ± 7584 * | 52923 ± 5313 ** | 10741 ± 5793 | 48800 ± 17971 * | 9245 ± 4682 * | 31965 ± 19694 | 1447 ± 2117 | 4884 ± 8378
2 | COc1cc2c3cc1Oc1c(OC)c(OC)cc4c1[C@@H](Cc1ccc(OC(=O)c5ccc([N+](=O)[O-])cc5)c(c1)Oc1ccc(cc1)C[C@@H]3N(C)CC2)N(C)CC4 [E6 Berbamine, E6-berbamine] | 6440 ± 4121 * | 20795 ± 11427 ** | 6205 ± 4137 * | 19420 ± 9845 ** | 6015 ± 4682 | 22404 ± 11035 *** | 7410 ± 4691 * | 28009 ± 13327 * | 10775 ± 5788 * | 44562 ± 11985 ** | 12148 ± 6414 * | 55682 ± 3508 ** | 5075 ± 3582 | 26964 ± 23925 | 2080 ± 3520 | 16367 ± 26569 | 1791 ± 3538 | 8441 ± 16764

From US12168781B2, “Production method for T cells or NK cells, medium for culturing T cells or NK cells, method for culturing T cells or NK cells, method for maintaining undifferentiated state of undifferentiated T cells, and growth-accelerating agent for T cells or NK cells” (KIRIN HOLDINGS KABUSHIKI KAISHA, priority 2018, dated 2024)
